This note sets out measurements from patent US5548062A, “Tumor cell invasion-inhibiting peptides, peptide complexes and cancer metastasis inhibitors” (Asahi Glass Company Ltd., priority 1990, dated 1996).

This data set can be described thus: Kinetics in blood after injection into the tail vein. Conditions: female, C57BL/6j, mouse, in vivo, iv. Also noted: species or system C57BL/6j mouse. As for the experimental part:
The kinetics in blood of the peptide of the formula (14) prepared in the Reference Example and the [^14 C]-labeled complex prepared in Example D-2 were studied.
To the vein of the tail of a C57BL/6j mouse (8 weeks old, female), 1,000 μg/0.2 cm^3 of the peptide or 100 μg/0.2 cm^3 of the labeled complex was injected. Upon expiration of a predetermined period of time, the carotid artery was cut for blood sampling. To quantitatively analyze the amount of the peptide in blood, to 1 cm^3 of the sampled blood, the same amount of 10% trifluoroacetic acid was added, followed by centrifugal separation at a speed of 10,000 rpm to precipitate the denatured protein, and the supernatant was recovered. […] To the obtained freeze-dried product, 0.2 cm^3 of distilled water was added, and the quantitative analysis was conducted by reversed phase (C18) chromatography. The quantitative analysis was conducted based on the quantitative curve obtained with a standard product (the peptide prepared in the Reference Example and quantitatively analyzed by an amino acid analysis).
To quantitatively analyze the [^14 C]-labeled complex, 2.5 cm^3 of a tissue solubilizer (NCA, Amersham Company) was added to 0.2 cm^3 of the sampled blood, followed by heating at 50° C. for two hours to solubilize the blood. […]

Where a SMILES comes first, the peptide text is derived from it.

Consider `C[C@H](N)C(=O)N[C@@H](CCC(=O)O)C(=O)N[C@@H](CC(=O)O)C(=O)NCC(=O)N[C@@H](CC(=O)O)C(=O)N[C@@H](C)C(=O)N[C@@H](CCCCN)C(=O)N[C@H](C(=O)N[C@@H](CC(=O)O)C(=O)N[C@@H](CCC(N)=O)C(=O)N[C@@H](C)C(=O)N[C@@H](CCC(=O)O)C(=O)N[C@@H](CCCCN)C(=O)N[C@@H](C)C(=O)N[C@@H](CCC(=O)O)C(=O)NCC(=O)N[C@@H](C)C(=O)NCC(=O)N[C@@H](CC(=O)O)C(=O)N[C@@H](C)C(=O)N[C@@H](CCCCN)C(=O)O)[C@@H](C)O` [peptide of the formula (14), Ala-Glu-Asp-Gly-Asp-Ala-Lys-Thr-Asp-Glx-Ala-Glx-Lys-Ala-Glu-Gly-Ala-Gly-As p-Ala-Lys] (H-AEDGDAKTDQAEKAEGAGDAK-OH), for which the half-life (in general, how long it takes for the measured level to halve) is ~20 s.
